Measurements from US12102648B2, “Orally-bioavailable nucleoside analogs” (priority 2021, dated 2024).
Like-named read-outs stand apart in the source and are kept apart here.

Assay: in vitro
Format: in vitro ADME
Conditions: human
Procedure, shortened: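 Caco-2 monolayers cultured 19 days on inserts (TEER >600 […]); bidirectional A-to-B and B-to-A transport at 37° C over 90 min, samples quantified by LC/MS/MS. Papp, efflux ratio and recovery calculated; ER >2 flags potential efflux substrates.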

[1] = Caco-2 monolayer, apical to basolateral, 90-minute incubation, read-out: Papp, A-B
[2] = Caco-2 monolayer, basolateral to apical, 90-minute incubation, read-out: Papp, B-A
[3] = Caco-2 monolayer, ER>2 indicates potential efflux transporter substrate, read-out: ER (efflux ratio)

Row | Compound | Papp A→B at 90 min (Caco-2) [×10⁻⁶ cm/s] | Papp B→A at 90 min (Caco-2) [×10⁻⁶ cm/s] | efflux ratio at 90 min (Caco-2) | Papp A→B at 90 min [1] [×10⁻⁶ cm/s] | Papp B→A at 90 min [2] [×10⁻⁶ cm/s] | efflux ratio at 90 min [3]
1 | N#C[C@@]1(c2ccc3c(N)ncnn23)O[C@H](COC(=O)CC2CCCCCC2)[C@@H](O)[C@H]1O [Compound 261, ((2R,3S,4R,5R)-5-(4-aminopyrrolo[2,1-f][1,2,4]triazin-7-yl)-5-cyano-3,4-dihydroxytetrahydrofuran-2-yl)methyl 2-cycloheptylacetate] | 0.79 | 1.1 | 1.4 |  |  | 
2 | CC(=O)OC[C@H]1O[C@@](C#N)(c2ccc3c(N)ncnn23)[C@H](O)[C@@H]1OC(=O)CC1CCCCC1 [Compound 50, (2R,3S,4R,5R)-2-(acetoxymethyl)-5-(4-aminopyrrolo[2,1-f][1,2,4]triazin-7-yl)-5-cyano-4-hydroxytetrahydrofuran-3-yl 2-cyclohexylacetate] | 1.9 | 0.76 | 0.39 |  |  | 
3 | N#C[C@@]1(c2ccc3c(N)ncnn23)O[C@H](COC(=O)CC2CCS(=O)(=O)CC2)[C@@H](O)[C@H]1O [Compound 280, ((2R,3S,4R,5R)-5-(4-aminopyrrolo[2,1-f][1,2,4]triazin-7-yl)-5-cyano-3,4-dihydroxytetrahydrofuran-2-yl)methyl 2-(1,1-dioxidotetrahydro-2H-thiopyran-4-yl)acetate] | 0.38 | 0.91 | 2.4 |  |  | 
4 | CNc1nc(N)nc2c1ncn2[C@@H]1O[C@H](COC(=O)CC(C)C)[C@@H](OC(=O)CC(C)C)[C@@]1(C)F [Compound 312, (2R,3R,4R,5R)-5-(2-amino-6-(methylamino)-9H-purin-9-yl)-4-fluoro-4-methyl-2-(((3-methylbutanoyl)oxy)methyl)tetrahydrofuran-3-yl 3-methylbutanoate] | 23 | 6.5 | 0.28 |  |  | 
5 | N#C[C@@]1(c2ccc3c(N)ncnn23)O[C@H](COC(=O)CC2CCCC2)[C@@H](O)[C@H]1O [Compound 259, ((2R,3S,4R,5R)-5-(4-aminopyrrolo[2,1-f][1,2,4]triazin-7-yl)-5-cyano-3,4-dihydroxytetrahydrofuran-2-yl)methyl 2-cyclopentylacetate] | 2 | 0.6 | 0.3 |  |  | 
6 | CC(C)(C)[C@H](N)C(=O)OC[C@H]1O[C@@](C#N)(c2ccc3c(N)ncnn23)[C@H](O)[C@@H]1O [Compound 410, ((2R,3S,4R,5R)-5-(4-aminopyrrolo[2,1-f][1,2,4]triazin-7-yl)-5-cyano-3,4-dihydroxytetrahydrofuran-2-yl)methyl (S)-2-amino-3,3-dimethylbutanoate] | 0.47 | 1.49 | 3.2 |  |  | 
7 | CCC(=O)O[C@H]1[C@@H](O)[C@](C#N)(c2ccc3c(N)ncnn23)O[C@@H]1COC(=O)[C@@H](N)C(C)C [Compound 39, ((2R,3S,4R,5R)-5-(4-aminopyrrolo[2,1-f][1,2,4]triazin-7-yl)-5-cyano-4-hydroxy-3-(propionyloxy)tetrahydrofuran-2-yl)methyl L-valinate] |  |  |  | 0.23 | 2.3 | 10
8 | C[C@H](C(=O)OC[C@H]1O[C@@](C#N)(c2ccc3c(N)ncnn23)[C@H](O)[C@@H]1O)C1CCCCC1 [Compound 281, ((2R,3S,4R,5R)-5-(4-aminopyrrolo[2,1-f][1,2,4]triazin-7-yl)-5-cyano-3,4-dihydroxytetrahydrofuran-2-yl)methyl (S)-2-cyclohexylpropanoate] | 13 | 29 | 2.3 |  |  | 
9 | CC(C)CC(=O)OC[C@H]1O[C@@](C#N)(c2ccc3c(N)ncnn23)[C@H](O)[C@@H]1O [Compound 9, ((2R,3S,4R,5R)-5-(4-aminopyrrolo[2,1-f][1,2,4]triazin-7-yl)-5-cyano-3,4-dihydroxytetrahydrofuran-2-yl)methyl 3-methylbutanoate] | 3 | 4.7 | 1.6 |  |  | 
10 | N#C[C@@]1(c2ccc3c(NC(=O)[C@@H](N)Cc4ccc(F)cc4)ncnn23)O[C@H](COC(=O)CC2(N)CCCCC2)[C@@H](O)[C@H]1O [Compound 352, ((2R,3S,4R,5R)-5-(4-((S)-2-amino-3-(4-fluorophenyl)propanamido)pyrrolo[2,1-f][1,2,4]triazin-7-yl)-5-cyano-3,4-dihydroxytetrahydrofuran-2-yl)methyl 2-(1-aminocyclohexyl)acetate] | 0.25 | 1.4 | 5.7 |  |  | 
11 | CC(C)CC(=O)OC[C@H]1O[C@@](C#N)(c2ccc3c(N)ncnn23)[C@H](O)[C@@H]1OC(=O)Cc1ccccc1 [Compound 20, ((2R,3S,4R,5R)-5-(4-aminopyrrolo[2,1-f][1,2,4]triazin-7-yl)-5-cyano-4-hydroxy-3-(2-phenylacetoxy)tetrahydrofuran-2-yl)methyl 3-methylbutanoate] |  |  |  | 10 | 9.8 | 1
12 | CC(C)C(=O)O[C@H]1[C@@H](O)[C@](C#N)(c2ccc3c(N)ncnn23)O[C@@H]1COC(=O)CC1CCCCC1 [Compound 30, (2R,3S,4R,5R)-5-(4-aminopyrrolo[2,1-f][1,2,4]triazin-7-yl)-5-cyano-2-((2-cyclohexylacetoxy)methyl)-4-hydroxytetrahydrofuran-3-yl isobutyrate] | 7.3 | 7.1 | 1 |  |  | 
13 | CCCCCOC(=O)Nc1ncnn2c([C@]3(C#N)O[C@H](COC(=O)CC)[C@@H](O)[C@H]3O)ccc12 [Compound 91, ((2R,3S,4R,5R)-5-cyano-3,4-dihydroxy-5-(4-(((pentyloxy)carbonyl)amino)pyrrolo[2,1-f][1,2,4]triazin-7-yl)tetrahydrofuran-2-yl)methyl propionate] |  |  |  | 1.9 | 4.1 | 2.1
14 | CNc1nc(N)nc2c1ncn2[C@@H]1O[C@H](COC(C)=O)[C@@H](OC(=O)CC(C)C)[C@@]1(C)F [Compound 186, (2R,3R,4R,5R)-2-(acetoxymethyl)-5-(2-amino-6-(methylamino)-9H-purin-9-yl)-4-fluoro-4-methyltetrahydrofuran-3-yl 3-methylbutanoate] | 19 | 7.2 | 0.38 |  |  | 
15 | CNc1nc(N)nc2c1ncn2[C@@H]1O[C@H](COC(=O)C(C)C)[C@@H](OC(=O)CC(C)C)[C@@]1(C)F [Compound 187, (2R,3R,4R,5R)-5-(2-amino-6-(methylamino)-9H-purin-9-yl)-4-fluoro-2-((isobutyryloxy)methyl)-4-methyltetrahydrofuran-3-yl 3-methylbutanoate] | 11 | 2.4 | 0.22 |  |  | 
16 | CCCC(=O)Nc1ncnn2c([C@]3(C#N)O[C@H](COC(=O)CC4CCCCC4)[C@@H](OC(=O)[C@@H](N)C(C)C)[C@H]3O)ccc12 [Compound 350, (2R,3S,4R,5R)-5-(4-butyramidopyrrolo[2,1-f][1,2,4]triazin-7-yl)-5-cyano-2-((2-cyclohexylacetoxy)methyl)-4-hydroxytetrahydrofuran-3-yl L-valinate] | 1.9 | 6.9 | 4.3 |  |  | 
17 | CNc1nc(N)nc2c1ncn2[C@@H]1O[C@H](COC(=O)CC2CCCCC2)[C@@H](OC(C)=O)[C@@]1(C)F [Compound 215, ((2R,3R,4R,5R)-3-acetoxy-5-(2-amino-6-(methylamino)-9H-purin-9-yl)-4-fluoro-4-methyltetrahydrofuran-2-yl)methyl 2-cyclohexylacetate] | 9.3 | 1.6 | 0.18 |  |  | 
18 | CC(C)(C)C(=O)OCO[C@H]1[C@@H](O)[C@](C#N)(c2ccc3c(N)ncnn23)O[C@@H]1COC(=O)CC1CCCCC1 [Compound 32, (((2R,3S,4R,5R)-5-(4-aminopyrrolo[2,1-f][1,2,4]triazin-7-yl)-5-cyano-2-((2-cyclohexylacetoxy)methyl)-4-hydroxytetrahydrofuran-3-yl)oxy)methyl pivalate] | 6.9 | 5.5 | 0.8 |  |  | 
19 | CC(C)C(=O)OC[C@H]1O[C@@](C#N)(c2ccc3c(N)ncnn23)[C@H](O)[C@@H]1OCOC(=O)C(C)(C)C [Compound 64, (((2R,3S,4R,5R)-5-(4-aminopyrrolo[2,1-f][1,2,4]triazin-7-yl)-5-cyano-4-hydroxy-2-((isobutyryloxy)methyl)tetrahydrofuran-3-yl)oxy)methyl pivalate] | 5.9 | 7.1 | 1.2 |  |  | 
20 | CNc1nc(N)nc2c1ncn2[C@@H]1O[C@H](COC(=O)CC2CCCCC2)[C@@H](OC(=O)C(C)C)[C@@]1(C)F [Compound 223, (2R,3R,4R,5R)-5-[2-amino-6-(methylamino)purin-9-yl]-2-{[(2-cyclohexylacetyl)oxy]methyl}-4-fluoro-4-methyloxolan-3-yl 2-methylpropanoate] | 20 | 6.9 | 0.34 |  |  | 
21 | CC(C)(C)[C@@H](N)C(=O)OC[C@H]1O[C@@](C#N)(c2ccc3c(N)ncnn23)[C@H](O)[C@@H]1OC(=O)CC1CCCCC1 [Compound 392] | 5.6 | 16.4 | 3 |  |  | 
22 | CNc1nc(N)nc2c1ncn2[C@@H]1O[C@H](COC(=O)C(C)C)[C@@H](OC(=O)CC2CCCCC2)[C@@]1(C)F [Compound 195, ((2R,3R,4R,5R)-5-(2-amino-6-(methylamino)-9H-purin-9-yl)-3-(2-cyclohexylacetoxy)-4-fluoro-4-methyltetrahydrofuran-2-yl)methyl isobutyrate] | 6.3 | 1.1 | 0.18 |  |  | 
